{"source": "patent US20250320253A1", "about": "“TRANSMEMBRANE PEPTIDIC ANTAGONISTS OF PLEXIN-A1 AND THEIR THERAPEUTIC USES” (UNIVERSITE DE STRASBOURG, priority 2021, published 2025)", "key": {"[1]": {"assay": "MTP solubility in PBS and PBS/LDS", "format": "physicochemical", "description": "The solubility of the MTPs was tested either in phosphate buffered saline (PBS) or in a mixture of PBS and lithium dodecyl sulfate (LDS)."}, "[2]": {"target": "T1, NRP1-PlexinA1 interaction (Mus musculus, UniProt P70206)", "T1 construct": "endogenous in cells; host or cells: Oli-neu cells", "assay": "Proximity ligation assay of Neuropilin-1/Plexin-A1 receptor dimers in Oli-neu cells", "format": "cell-based", "conditions": "for Normalized interactions Nrp1-PlexinA1/cell: Oli-neu cells treated with peptides at 10^−7 M, vehicle 100; for reduction of the number of NRP1/PlexinA1 interactions: 10^−7 M", "description": "After fixation with 1% PFA for 10 min, slices were permeabilized with PBS/0.1% Triton X-100. Primary antibodies (NRP1 from Evitria, 1:500; and Plexin-A1 from Abcam, ab23391, 1:200) were incubated overnight at 4° C. in PBS. The proximity ligation assay allowing to visualize receptor dimers (Neuropilin-1/Plexin-A1) was then performed according to the manufacturer's recommendations with the “detection orange” kit (Sigma). Quantification of the interactions (fluorescent dots at the cell surface) was performed using ImageJ software."}, "[3]": {"tested_on": "oligodendrocyte cell line Oli-neu", "assay": "Cell migration assay (Transwell CIM-Plate, xCELLigence), rescue of Sema3A negative effect", "format": "cell-based", "conditions": "20 ng/ml Sema3A", "description": "Cells were pre-incubated 1 h with vehicle alone or MTP. The 1×10^5 cells were seeded in the upper chamber with 150 μl of medium. The bottom well contained 160 μl of medium supplemented with 2% fetal bovine serum for chemoattraction and 20 ng/ml Sema3A (Recombinant Mouse Semaphorin 3A Fc Chimera Protein Carrier Free ref: 5926-S3/CF; RnD Systems) for repulsion. Analysis was performed after 8 h of migration according to the manufacturer's instructions. Data are expressed as a percentage of positive control migration, i.e. the migration of Oli-neu with 2% serum and without Sema3A."}, "[4]": {"tested_on": "cuprizone-induced demyelination", "conditions": "mouse, in vivo", "description": "It was next assessed whether […] can induce remyelination of the CNS and motor function recovery following demyelination induced by cuprizone, a copper-chelating agent, in a mouse model. Oral intoxication with cuprizone induces oligodendrocyte apoptosis within a few days, which is closely followed by the activation of the innate immune cells in the brain, i.e., astrocytes and microglia, finally leading to demyelination of distinct white and grey matter brain areas. […] (10 μg/kg) for 6 consecutive days (n=10) • (e) 5 weeks cuprizone, followed by treatment with […] (100 μg/kg) for 6 consecutive days (n=10) • (f) 5 weeks cuprizone, followed by treatment with vehicle for 11 consecutive days (n=10) • (g) 5 weeks cuprizone, followed by treatment with […] (10 μg/kg) for 11 consecutive days (n=10) • (h) 5 weeks cuprizone, followed by treatment with […] (100 μg/kg) for 11 consecutive days (n=10) Acute demyelination was induced by intoxicating for five consecutive weeks 8-week-old (19-21 g) male mice a diet containing 0.25% cuprizone [bis(cyclohexanone)oxaldihydrazone; Sigma-Aldrich Inc., St Louis, MO, USA] mixed into a ground standard rodent chow. […]"}, "[5]": {"target": "Plexin-A1 (on Oli-neu cells) (UniProt P70206)", "assay": "proximity ligation assay on Oli-neu cells, peptide at 10^-7 M for 1 h; NRP1/Plexin-A1 dimers counted"}, "[6]": {"target": "Plexin-A1 (on Oli-neu cells) (UniProt P70206)", "assay": "proximity ligation assay on Oli-neu cells, dose response; inhibition of NRP1/Plexin-A1 interactions"}, "[7]": {"conditions": "Solubilization vehicle PBS 100%"}}, "note": "Entries after “also recorded” stand apart in the source; their conditions may differ. Ends that are not written are not given here.", "data": [{"molecule": "TLPAIGVITLVGLGVLELVAEGVYEEEEE [HODR, reference compound]", "values": [{"measurement": "Measured concentration", "setting": "[1]; [7]", "value": 189, "unit": "µM"}]}, {"molecule": "TLPAITGLVGGVGLLLEVIVEVAYEEEEE [GUNGNIR]", "values": [{"measurement": "Normalized interactions Nrp1-PlexinA1/cell", "setting": "[2]", "value": 40.4}, {"measurement": "reduction of the number of NRP1/PlexinA1 interactions", "setting": "[2]; Oli-neu cells", "value": "−60", "unit": "%"}, {"measurement": "IC50", "setting": "[3]; n=3", "value": 1.2, "unit": "nM"}, {"measurement": "Measured concentration", "setting": "[1]; [7]", "value": 248, "unit": "µM"}, {"measurement": "body weight", "setting": "[4]", "value": "no differences were observed"}, {"measurement": "percentage loss of body weight relative to vehicle-treated groups", "setting": "[4]", "value": "significantly less pronounced"}]}, {"molecule": "TLPAIVGIGGGGGELLLVIVEVLIYEEEEE [RATI]", "values": [{"measurement": "Measured concentration", "setting": "[1]; [7]", "value": 224, "unit": "µM"}]}, {"molecule": "TLPAIVGIGGGGGLLLEVIVEVLIAYEEEEE [DRAUPNIR]", "values": [{"measurement": "Measured concentration", "setting": "[1]; [7]", "value": 260, "unit": "µM"}]}, {"molecule": "TLPAIVGIGGGGGLLLLVIVAVLIAYKRK [MTP-PlexA1, reference compound]", "values": [{"measurement": "Measured concentration", "setting": "[1]; [7]", "value": 0, "unit": "µM"}, {"measurement": "Measured concentration", "setting": "[1]; Solubilization vehicle PBS 100% LDS 72 mM", "value": 360, "unit": "µM"}]}, {"molecule": "TLPAIVSIGGGVVLLLEVIVEVAYEEEEE [MIMMING]", "values": [{"measurement": "Normalized interactions Nrp1-PlexinA1/cell", "setting": "[2]", "value": 49.4}, {"measurement": "reduction of the number of NRP1/PlexinA1 interactions", "setting": "[2]; Oli-neu cells", "value": "−51", "unit": "%"}, {"measurement": "IC50", "setting": "[2]; Oli-neu cells, dose response, read-out: IC50, number of NRP1/PlexinA1 interactions", "value": 17, "unit": "nM"}, {"measurement": "rescue of Sema3A negative effect on migration", "setting": "[3]; 8 h of migration", "value": "able to counteract; also recorded: rescue migration"}]}, {"molecule": "TLPVIGVIVLVGSAVLELIAEGVYEEEEE [SURTR, reference compound]", "values": [{"measurement": "Normalized interactions Nrp1-PlexinA1/cell", "setting": "[2]", "value": 96.8}]}, {"molecule": "TLPVIGVIVLVGSAVLELIAEGVYEEEEE", "note": "[SURTR]", "values": [{"measurement": "Normalized interactions Nrp1-PlexinA1/cell (normalized to vehicle = 100)", "setting": "[5]", "value": 96.8}]}, {"molecule": "TLPAITGLVGGVGLLLEVIVEVAYEEEEE", "note": "[GUNGNIR]", "values": [{"measurement": "Normalized interactions Nrp1-PlexinA1/cell (normalized to vehicle = 100)", "setting": "[5]", "value": 40.4}, {"measurement": "IC50", "setting": "[6]", "value": 0.074, "unit": "nM"}]}, {"molecule": "TLPAIVSIGGGVVLLLEVIVEVAYEEEEE", "note": "[MIMMING]", "values": [{"measurement": "Normalized interactions Nrp1-PlexinA1/cell (normalized to vehicle = 100)", "setting": "[5]", "value": 49.4}]}]}
